# According to patent US6686370B2, “Triazospiro compounds having nociceptin receptor affinity” (Euro-Celtique S.A., priority 1999, dated 2004):
structure (smiles),measurement,value
"O=C1NCN(c2ccccc2)C12CCN(C1CCc3ccccc3C1)CC2 (stereo not shown) [8-[1,2,3,4tetrahydronaphthyl]-1-phenyl-1,3,8-triazospiro[4.5]decan-4-one]",melting point,192 to 193 °C
